The record followed here is patent US20180344725A1, “QUINOLONE CHALCONE COMPOUNDS AND USES THEREOF” (priority 2015, published 2018).

As a reminder, the IC50 is the concentration needed to halve the response being measured.

Experiment [1] deals with MCF-10A. In words: SRB-based cytotoxicity assay. The class given is cell-based. The following applies: Homo sapiens, MCF-10A; MCF10A non-cancer; 72 hours; Table 4. The method, then:
(§1) For (anti)proliferation assays, 4,000-5,000 cells/well of the 96-well clustered dish were incubated for 16 hours, as described previously (Hu et al., 2008; Skehan et al., 1990). After 16 hours, culture medium was replaced with fresh medium containing different dilutions of test compounds dissolved in DMSO. Some wells were treated with 100 μl of 10% trichloroacetic acid (TCA) as a negative control and sham (medium with dimethyl sulfoxide; DMSO) treated cells were used as a positive control. After 72 hours post-incubation, medium was removed and cells were fixed with 10% TCA at 4° C. for 1 hour. TCA was removed and cells were washed with cold tap water, and plate was air-dried, followed by addition of 50 μl of 0.4% SRB staining solution to each well. After 30 minutes incubation, SRB staining solution was removed. Cells were washed with 1% acetic acid solution, and then washed with tap water to remove unbound staining solution, followed by air-drying. 200 μl of 10 mM (pH10.5) trizma base buffer was added to each well to solubilise macromolecules. SRB stained macromolecules were determined at a 540 nm wavelength using an automated plate reader (Synergy H4 Hybrid Multi-Mode Microplate Reader, BioTek, Winooski, Vt.). Cell growth (inhibition) was calculated by the following formula:
(§2) % cells proliferation=[(AT−CT)/(ST−CT)]×100
(§3) wherein AT=absorbance of treated cells, CT=absorbance of negative control cells, and ST=absorbance of sham treated cells. IC50 values were calculated from sigmoidal dose-response curves generated by two independent biological replicates, with quadruplicate in each set by using Graph Pad Prism v.5.04 software. […] The combinational index (CI) was calculated as described previously (Chou 2006). If the CI values were less than, equal to or more than 1, it indicates a synergistic, additive or antagonistic effect respectively (Chou 2006). CI values were determined from four independent experiments.

For experiment [2], the system named is 184B5. In words: SRB-based cytotoxicity assay. The class given is cell-based. The following applies: 184B5 non-cancer. The method, then: as §1, §2, §3
Experiment [3] concerns RPMI-8226BTZR. The experiment is described as follows: Killing of bortezomib-resistant multiple myeloma cells. The class given is cell-based. An excerpt:
The RPMI-8226BTZR over-expresses β1, β2 and β5 peptides of the 20S subunit. […] However, RPMI-8226BTZR is sensitive to CTR-20, CTR-21 and CTR-32 (FIG. 36).

Experiment [4] deals with MDA-MB-468. The experiment is described as follows: SRB-based cytotoxicity assay. Particulars: MDA-MB-468, SRB, Table 2. The class given is cell-based, human. The method, then: as §1, §2, §3
In experiment [5] the test system is MCF-7. The experiment is described as follows: SRB-based cytotoxicity assay. The class given is cell-based, human. The method, then:
as §1, §2, §3

The subject of experiment [6] is MDA-MB-231. In words: SRB-based cytotoxicity assay. The class given is cell-based, human. The method, then:
as §1, §2, §3

The test system of experiment [7] is RPMI-8226 (myeloma). In words: SRB-based cytotoxicity assay. The class given is cell-based. The following applies: Homo sapiens, 72 hours, Table 4. The method, then:
as §1, §2, §3

Experiment [8] has as its system HeLa. The experiment is described as follows: SRB-based cytotoxicity assay. The class given is cell-based. The following applies: Homo sapiens; HeLa; 72 hours; Table 4. The method, then: as §1, §2, §3
In experiment [9] the test system is MDA-MB231TaxR. In words: SRB-based cytotoxicity assay, single and combination with paclitaxel. The class given is cell-based. Particulars: TaxR selected in 100.0 nM paclitaxel. The method, then: All of the cell lines used were purchased from ATCC and cultured in RPMI-1640 supplemented with 10% fetal bovine serum and antibiotics (100 units penicillin/100 μg/ml streptomycin), unless stated otherwise. 1845B5 and MCF-10A non-cancer breast cell lines were cultured in DME/F12 medium supplemented with 10% fetal bovine serum, antibiotics and growth factors. […] The human small cell lung carcinoma H69 cell line and its multidrug-resistant MRP1-overexpressing isogenic H69AR cell line were purchased from ATCC. […] H69 cells grow as large multi-cell aggregates, making it difficult to accurately count cell numbers. […] The IL-6 dependent bortezomib-resistant ANBL6-BR cell line was further supplemented with 1 ng/ml of IL-6. The MCF10AT1 and MCF10CA1a cell lines are isogenic to the MCF10A cell line, and obtained from Dr. Valerie Weaver at the Center for Bioengineering and Tissue Regeneration, UCSF, CA, USA. MCF10AT1 is a premalignant cell line generated by transforming MCF10A with c-Ha-Ras; and MCF10CA1a was isolated by selecting malignant cells after MCF10AT1 cells were engrafted into mice (Liu & Lin 2004; […] et al. 2009). […] The drug-resistant cells were cultured in the absence of drug for at least one passage before carrying out experiments. All cells were maintained in a humidified incubator at 37° C. […] Cell line authentication was performed using short tandem repeat (STR) profiling. For (anti)proliferation assays, 4,000-5,000 cells/well of the 96-well clustered dish were incubated for 16 hours, as described previously (Hu et al., 2008; Skehan et al., 1990). […] Some wells were treated with 100 μl of 10% trichloroacetic acid (TCA) as a negative control and sham (medium with dimethyl sulfoxide; DMSO) treated cells were used as a positive control. […] TCA was removed and cells were washed with cold tap water, and plate was air-dried, followed by addition of 50 μl of 0.4% SRB staining solution to each well. After 30 minutes incubation, SRB staining solution was removed. Cells were washed with 1% acetic acid solution, and then washed with tap water to remove unbound staining solution, followed by air-drying. 200 μl of 10 mM (pH10.5) trizma base buffer was added to each well to solubilise macromolecules. […] Cell growth (inhibition) was calculated by the following formula: % cells proliferation=[(AT-CT)/(ST-CT)]×100 wherein AT=absorbance of treated cells, CT=absorbance of negative control cells, and ST=absorbance of sham treated cells. […] The combinational index (CI) was calculated as described previously (Chou 2006). […] CI values were determined from four independent experiments.

[10] abbreviates: Homo sapiens, 72 hours, Table 4.

Molecules are shown by their SMILES.

Take `COc1ccc2[nH]c(=O)c(/C=C/C(=O)c3ccc(F)cc3OC)cc2c1` [CTR-38]: the IC50 in experiment [1] is 110 nM; in experiment [2] (setting [10]) it was 160 ± 20 nM.
In the case of `CC(C)C[C@H](NC(=O)[C@H](Cc1ccccc1)NC(=O)c1cnccn1)B(O)O` [bortezomib, reference compound], the “resistance of RPMI-8226BTZR compared to RPMI-8226 parental cells” value in [3] is reported as “approximately 28 fold”.
Turning to `COc1cc2cc(/C=C/C(=O)c3ccccc3OC)c(=O)[nH]c2cc1OC` [CTR-24], the IC50 in experiment [1] stood at 2100 ± 390 nM; in [2] (setting [10]) it was 2370 ± 190 nM.
`N.N.[Cl][Pt][Cl]` [Cisplatin, reference compound]: the IC50 in [4] worked out at 31000 nM; in experiment [5] (MCF-7, SRB, Table 2) it was 25800 nM; in [6] (MDA-MB-231, SRB, Table 2), 23600 nM; in experiment [2] (SRB, Table 2), 25500 nM.
Consider `COc1ccc(OC)c(C(=O)/C=C/c2cc3cc(OC)ccc3[nH]c2=O)c1` [CTR-34], for which the IC50 in experiment [1] was determined as 980 ± 40 nM; in experiment [2] (setting [10]), 1160 ± 100 nM.
In the same order, the values of `CCOc1ccccc1C(=O)/C=C/c1cc2cc(OC)ccc2[nH]c1=O` [CTR-40, (E)-3-(3-(2-ethoxyphenyl)-3-oxoprop-1-enyl)-6-methoxyquinolin-2(1H)-one] are 70 nM and 100 ± 10 nM.
Turning to `COc1ccc(C(=O)/C=C/c2cc3cc(OC)ccc3[nH]c2=O)c(OC)c1` [CTR-35], the IC50 in experiment [1] was found to be 2880 ± 540 nM; in experiment [2] (setting [10]) it was 4290 ± 60 nM.
For `COc1ccccc1C(=O)/C=C/c1cc2cc(C)c(C)cc2[nH]c1=O` [CTR-23], the IC50 came out at 500 ± 100 nM in [5] (Homo sapiens, MCF7, 72 hours, Table 4); 1520 ± 120 nM in experiment [6] (Homo sapiens, MDA-MB-231, MDA-MB231, 72 hours, Table 4); 1410 ± 150 nM in experiment [7]; 1120 ± 40 nM in experiment [1]; 640 ± 50 nM in experiment [8]; 1320 ± 30 nM in [2] (setting [10]).
For `COc1ccc(OC)c(C(=O)/C=C/c2cc3ccccc3[nH]c2=O)c1` [CTR-26], the values for the IC50 in experiment [1] and in [2] (setting [10]) were 910 ± 30 nM and 770 ± 110 nM, respectively.
Turning to `COc1cccc(OC)c1C(=O)/C=C/c1cc2ccccc2[nH]c1=O` [CTR-25, (E)-3-(3-(2,6-dimethoxyphenyl)-3-oxoprop-1-enyl)quinolin-2(1H)-one], the values for the IC50 in experiment [1] and in experiment [2] (setting [10]) were 2640 ± 150 nM and 2640 ± 170 nM, respectively.
Consider `COc1ccc2[nH]c(=O)c(/C=C/C(=O)c3cc(F)ccc3OC)cc2c1` [CTR-37], for which the IC50 was 460 ± 110 nM in experiment [1] and 440 ± 20 nM in [2] (setting [10]).
Turning to `COc1cc2c(c(OC)c1OC)-c1ccc(OC)c(=O)cc1[C@@H](NC(C)=O)CC2` [Colchicine, reference compound], in experiment [9], the “killing of MDA-MB231TaxR compared with parental MDA-MB231” value is given as “to the same degree as the parental MDA-MB231 cells”.
In the case of `COc1ccc(C(=O)/C=C/c2cc3ccccc3[nH]c2=O)c(OC)c1` [CTR-27], the IC50 is 2690 ± 240 nM in experiment [6] (MDA-MB231, 72 hours, Table 4); 2520 ± 30 nM in experiment [1]; 2800 ± 180 nM in experiment [2] (setting [10]).
With `COc1cc(F)ccc1C(=O)/C=C/c1cc2ccccc2[nH]c1=O` [CTR-30], the figures for the IC50 in experiment [1] and in experiment [2] (setting [10]) were 2790 ± 590 nM and 2460 ± 140 nM, respectively.
Regarding `COc1ccc2[nH]c(=O)c(/C=C/C(=O)c3ccc(OC(F)(F)F)cc3OC)cc2c1` [CTR-36], the values for the IC50 in experiment [1] and in experiment [2] (setting [10]) were 1350 ± 160 nM and 1840 ± 70 nM, respectively.
Regarding `CN(C)CC[C@H](CSc1ccccc1)Nc1ccc(S(=O)(=O)NC(=O)c2ccc(N3CCN(Cc4ccccc4-c4ccc(Cl)cc4)CC3)cc2)cc1[N+](=O)[O-]` [ABT-737, reference compound], the Cell survival rate in [6] (single agent 3.125 μM, MDA-MB231) is listed as 98.61 ± 3.93; in [6] (single agent 6.25 μM, MDA-MB231), 91.01 ± 9.81.
`COc1ccc(F)cc1C(=O)/C=C/c1cc2ccccc2[nH]c1=O` [CTR-29]: the IC50 in experiment [1] came out at 270 ± 50 nM; in experiment [2] (setting [10]) it was 280 ± 10 nM.
Turning to `CCN(CC)CCCC(C)Nc1ccnc2cc(Cl)ccc12` (stereo not shown) [Chloroquine, reference compound], the IC50 is 28600 nM in [4] (Homo sapiens); 38400 nM in experiment [5] (Homo sapiens, MCF7, MCF-7, SRB, Table 2); 22500 nM in experiment [6] (Homo sapiens, MDA-MB-231, SRB, Table 2); 76100 nM in [2] (Homo sapiens, SRB, Table 2).
